Measurements taken from patent US20120010186A1, “HETEROCYCLIC COMPOUNDS AS INHIBITORS OF STEAROYL-COENZYME A DELTA-9 DESATURASE” (MERCK FROSST CANADA LTD., priority 2009, published 2012).
pIC50: −log10 of the molar value.

Molecular target: T1, human SCD1 (hSCD-1) (Homo sapiens, UniProt O00767)
T1 construct: made in house; host or cells: baculovirus/Sf9
T1 sequence (O00767 1-359): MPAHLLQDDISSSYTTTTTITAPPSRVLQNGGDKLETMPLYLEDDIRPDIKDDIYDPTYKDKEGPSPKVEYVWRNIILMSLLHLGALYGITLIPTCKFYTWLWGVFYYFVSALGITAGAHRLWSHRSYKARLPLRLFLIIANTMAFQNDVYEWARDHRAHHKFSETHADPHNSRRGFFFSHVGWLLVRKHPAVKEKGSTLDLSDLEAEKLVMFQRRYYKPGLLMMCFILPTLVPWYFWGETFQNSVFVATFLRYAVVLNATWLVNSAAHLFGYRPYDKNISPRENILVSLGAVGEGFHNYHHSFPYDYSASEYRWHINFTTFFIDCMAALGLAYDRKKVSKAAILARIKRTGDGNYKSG
Experiment: SCD enzyme activity assay, reconstituted human SCD1 (hSCD-1)
Type: biochemical
Experimental: The potency of compounds of formula I against the stearoyl-CoA desaturase was determined by measuring the conversion of radiolabeled stearoyl-CoA to oleoyl-CoA using rat liver microsome or human SCD1 (hSCD-1) following previously published procedures with some modifications (Joshi, et al., J. Lipid Res., 18: 32-36 (1977); Talamo, et al., Anal. Biochem, 29: 300-304 (1969)). Liver microsome was prepared from male Wistar or Sprague Dawley rats on a high carbohydrate diet for 3 days (LabDiet #5803, Purina). The livers were homogenized (1:10 w/v) in a buffer containing 250 mM sucrose, 1 mM EDTA, 5 mM DTT and 50 mM Tris-HCl (pH 7.5). After a 100,000×g centrifugation for 60 min, the liver microsome pellet was suspended in a buffer containing 100 mM sodium phosphate, 20% glycerol, 2 mM DTT, and stored at −78° C. Human SCD1 desaturase system was reconstituted using human SCD1 from a baculovirus/Sf9 expression system, cytochrome B5 and cytochrome B5 reductase. Typically, test compound in 2 μL DMSO was incubated for 15 min at room temperature with 180 μL of the SCD enzyme in a buffer containing 100 mM Tris-HCl (pH 7.5), ATP (5 mM), Coenzyme-A (0.1 mM), Triton X-100 (0.5 mM) and NADH (2 mM). The reaction was initiated by the addition of 20 μL of [^3H]-stearoyl-CoA (final concentration=2 μM, radioactivity concentration=1 μCi/mL). After 10 min, the reaction mixture (80 μL) was mixed with a calcium chloride/charcoal aqueous suspension (100 μL charcoal (10% w/v) plus 25 μL CaCl2 (2N). After centrifugation to precipitate the radioactive fatty acid species, tritiated water released from 9,10-[^3H]-stearoyl-CoA by the SCD enzyme was quantified on a scintillation counter.

| pIC50 | SMILES |
| --- | --- |
| 7.89 | O=C(O)Cn1nnc(-c2cnc(N3CC4CN(c5cc(Cl)cc(F)c5Cl)CC4C3)s2)n1 (centres unmarked) |
| 8.00 | O=C(O)Cn1nnc(-c2cnc(N3CC4CN(c5cc(OC(F)(F)F)ccc5Cl)CC4C3)s2)n1 (centres unmarked) |
| 7.96 | O=C(O)Cn1nnc(-c2cnc(N3CC4(C3)CN(c3cc(F)ccc3Cl)C4)s2)n1 |
| 7.41 | O=C(O)Cn1nnc(-c2cnc(N3CCC4(CC3)CN(c3cc(F)ccc3Cl)C4)s2)n1 |
| 7.57 | O=C(O)Cn1nnc(-c2cc(N3CC4CN(c5cc(F)ccc5Cl)CC4C3)no2)n1 (centres unmarked) |
| 7.35 | O=C(O)Cn1nnc(-c2cnc(N3CC4(CCN(c5cc(F)ccc5Cl)CC4)C3)s2)n1 |
| 6.79 | O=C(O)Cn1nnc(-c2cnc(N3CCC4(CCN(c5ccccc5Cl)C4)C3)s2)n1 (centres unmarked) |
| 7.92 | O=C(O)Cn1nnc(-c2cnc(N3CC4CN(c5cc(F)ccc5Cl)CC4C3)s2)n1 (centres unmarked) |
| 7.85 | O=C(O)Cn1nnc(-c2cnc(N3CC4CN(c5cc(C(F)(F)F)ccc5Br)CC4C3)s2)n1 (centres unmarked) |
| 7.11 | O=C(O)Cn1nnc(-c2cnc(N3CC4CN(c5cc(F)ccc5Br)CC4C3)nc2)n1 (centres unmarked) |
| 7.89 | O=C(O)Cn1nnc(-c2cnc(N3CC4CN(c5cc(Cl)ccc5Cl)CC4C3)s2)n1 (centres unmarked) |
